What is called IC50 is the concentration at which inhibition is half-maximal. What is called pIC50 is the IC50 on a negative log10 scale, so that one unit is a factor of ten.

These results are taken from patent publication US10087185B2 (Janssen Pharmaceutica NV, priority 2016, dated 2018).

Sequence of TARP γ8 dependent AMPA receptor (GRIA1o-CACNG8 fusion construct) (P42261 other isoform, or with tags, fused parts or gaps): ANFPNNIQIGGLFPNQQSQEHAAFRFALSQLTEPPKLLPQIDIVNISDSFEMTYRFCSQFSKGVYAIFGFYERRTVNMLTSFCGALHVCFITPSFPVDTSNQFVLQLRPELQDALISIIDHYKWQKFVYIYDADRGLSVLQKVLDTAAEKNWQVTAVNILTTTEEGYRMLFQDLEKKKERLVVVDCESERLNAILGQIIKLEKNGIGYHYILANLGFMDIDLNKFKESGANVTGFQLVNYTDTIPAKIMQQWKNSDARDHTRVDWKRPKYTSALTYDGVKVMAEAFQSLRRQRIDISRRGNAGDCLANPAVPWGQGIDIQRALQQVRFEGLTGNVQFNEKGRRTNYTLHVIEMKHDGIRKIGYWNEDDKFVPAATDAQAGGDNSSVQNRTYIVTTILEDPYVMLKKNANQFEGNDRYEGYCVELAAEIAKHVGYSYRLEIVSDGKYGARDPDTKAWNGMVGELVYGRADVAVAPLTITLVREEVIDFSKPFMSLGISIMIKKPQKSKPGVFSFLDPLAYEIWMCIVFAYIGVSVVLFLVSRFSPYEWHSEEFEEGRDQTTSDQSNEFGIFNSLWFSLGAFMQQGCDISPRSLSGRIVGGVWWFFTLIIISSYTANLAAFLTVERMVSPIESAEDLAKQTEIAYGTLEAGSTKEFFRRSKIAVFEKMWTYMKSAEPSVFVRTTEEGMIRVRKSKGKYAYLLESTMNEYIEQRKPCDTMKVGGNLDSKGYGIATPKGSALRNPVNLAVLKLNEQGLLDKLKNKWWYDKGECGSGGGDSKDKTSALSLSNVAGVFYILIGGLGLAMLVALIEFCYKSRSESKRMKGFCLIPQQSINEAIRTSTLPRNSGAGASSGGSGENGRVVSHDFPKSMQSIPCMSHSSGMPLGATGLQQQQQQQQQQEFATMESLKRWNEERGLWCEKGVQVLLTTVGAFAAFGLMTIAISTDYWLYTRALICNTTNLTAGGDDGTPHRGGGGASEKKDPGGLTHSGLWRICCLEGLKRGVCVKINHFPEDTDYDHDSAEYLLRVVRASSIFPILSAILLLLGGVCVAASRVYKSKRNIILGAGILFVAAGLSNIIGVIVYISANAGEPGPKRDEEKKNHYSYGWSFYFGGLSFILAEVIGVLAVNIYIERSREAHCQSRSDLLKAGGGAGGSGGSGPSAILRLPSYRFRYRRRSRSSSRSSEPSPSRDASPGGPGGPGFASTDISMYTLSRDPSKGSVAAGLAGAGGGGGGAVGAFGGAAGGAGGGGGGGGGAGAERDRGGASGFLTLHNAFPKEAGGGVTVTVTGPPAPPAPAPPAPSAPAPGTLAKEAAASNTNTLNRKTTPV

The target of this test is TARP γ8 dependent AMPA receptor (GRIA1o-CACNG8 fusion construct) (Homo sapiens (Human), UniProt P42261+Q8WXS5). In words: Calcium flux assay (FLIPR), inhibition of glutamate response of GluA1o-γ8 channel. The class given is cell-based. The note with it: HEK293 cells stably expressing GRIA1o-CACNG8 fusion; calcium flux after 15 μM glutamate; negative log of the IC50 in molar. From the text:
This assay was used to test compounds for their ability to inhibit TARP γ8 dependent AMPA receptor activity. The AMPA receptor is a non-selective cation channel activated by glutamate. […] But, this desensitization is incomplete, and a substantial steady-state current remains in the sustained presence of glutamate (Cho et al. (2007). “Two families of TARP isoforms that have distinct effects on the kinetic properties of AMPA receptors and synaptic currents.” Neuron 55(6): 890-904).
An in vitro assay was used to determine the potency of test compounds as inhibitors of the glutamate response of the channel formed by GluA10-γ8. To ensure a 1:1 stoichiometry of GluA1o and γ8 subunits in the expressed channel, a fusion of the cDNAs for GRIA1o and CACNG8 was used. Following Shi et al (2009) “The stoichiometry of AMPA receptors and TARPs varies by neuronal cell type.” Neuron 62(5): 633-640), the C-terminus of the cDNA for GRIA1o was fused to the N-terminus of the cDNA for γ8. The linker sequence was […]. Channels expressed with this construct appear to have similar properties to channels formed by co-expression of GRIA1o with an excess of CACNG8 (Shi et al. 2009). A clonal cell line in HEK293 cells stably expressing this construct, with a geneticin selection marker, was generated for use in this assay.
Cell expressing the GRIA1o-CACNG8 fusion construct were grown in a monolayer in 96- or 384-well microtiter plates. They were washed with assay buffer (135 mM NaCl, 4 mM KCl, 3 mM CaCl2, 1 mM MgCl2, 5 mM glucose, 10 mM HEPES, pH 7.4, 300 mOs) using a Biotek EL405 plate washer. The cells were then loaded with a calcium-sensitive dye (Calcium-5 or Calcium-6, Molecular Devices) and the test compounds at a range of concentrations. Calcium flux following the addition of 15 μM glutamate was monitored using a Molecular Devices FLIPR Tetra.
The fluorescence in each well was normalized to the fluorescence of negative and positive control wells. The negative control wells had no added compounds, and the positive control wells had been incubated with 10 μM CP465022 (a non-subtype-selective AMPA receptor antagonist) (Lazzaro et al. (2002). “Functional characterization of CP-465,022, a selective, noncompetitive AMPA receptor antagonist.” Neuropharmacology 42(2): 143-153). The responses to glutamate as functions of the test compound concentrations were fitted to a four-parameter logistic function. The fitted parameter corresponding to the midpoint was taken to be the potency of inhibition of the compound. The data in Table 4 below illustrates the observed potency for the compounds described herein. pIC50 refers to the negative log of the IC50 in molar.
As for `CCc1cc(-c2c(C(F)(F)F)cc(C)c3nc(C(F)(F)F)nn23)cc2c1NC(=O)C2` [Example 104, 7-Ethyl-5-(8-methyl-2,6-bis(trifluoromethyl)-[1,2,4]triazolo[1,5-a]pyridin-5-yl)indolin-2-one], the IC50 is 0.158 nM.

As for `CCc1nc2c(C)cc(C(F)(F)F)c(-c3cc4c(c(C(F)(F)F)c3)NC(=O)C4)n2n1` [Example 102, 5-(2-Ethyl-8-methyl-6-(trifluoromethyl)-[1,2,4]triazolo[1,5-a]pyridin-5-yl)-7-(trifluoromethyl)indolin-2-one], the IC50 is 1.58 nM.

Consider `CCc1cc(C(F)F)c(-c2cc(C)c3[nH]ncc3c2)n2nc(C(F)(F)F)nc12` [Example 92, 6-(Difluoromethyl)-8-ethyl-5-(7-methyl-1H-indazol-5-yl)-2-(trifluoromethyl)-[1,2,4]triazolo[1,5-a]pyridine], for which the IC50 was 1 nM.

`FC(F)(F)c1ccc2cc(C3CC3)nn2c1-c1cc(Cl)c2[nH]ncc2c1` [Example 70, 7-Chloro-5-(2-cyclopropyl-6-(trifluoromethyl)pyrazolo[1,5-a]pyridin-7-yl)-1H-indazole]: the IC50 was 0.0631 nM.

Take `CC(C)c1cc2ccc(C(F)(F)F)c(-c3cc(Cl)c4c(c3)CC(=O)N4)n2n1` [Example 72, 5-(2-Isopropyl-6-(trifluoromethyl)pyrazolo[1,5-a]pyridin-7-yl)-7-chloroindolin-2-one]: the IC50 was 0.0126 nM.

`Cc1cc(-c2c(C(F)(F)F)ccc3nc(C(F)F)nn23)cc2c1NC(=O)C2` [Example 10, 7-Methyl-5-(2-(difluoromethyl)-6-(trifluoromethyl)-[1,2,4]triazolo[1,5-a]pyridin-5-yl)indolin-2-one]: the IC50 is 0.794 nM.

Take `Cc1cc(-c2c(C(F)(F)F)ccc3nc(C(F)F)nn23)cc2cn[nH]c12` [Example 8, 5-(7-Methyl-1H-indazol-5-yl)-2-(difluoromethyl)-6-(trifluoromethyl)-[1,2,4]triazolo[1,5-a]pyridine]: the IC50 was 0.398 nM.

`CCc1nc2c(CC)cc(C(F)(F)F)c(-c3cc(C)c4[nH]ncc4c3)n2n1` [Example 90, 2,8-Diethyl-5-(7-methyl-1H-indazol-5-yl)-6-(trifluoromethyl)-[1,2,4]triazolo[1,5-a]pyridine]: the IC50 is 3.16 nM.

In the case of `FC(F)(F)c1cc2ccc(C(F)(F)F)c(-c3cc(Cl)c4[nH]ncc4c3)n2n1` [Example 63, 5-(2,6-Bis(trifluoromethyl)pyrazolo[1,5-a]pyridin-7-yl)-7-chloro-1H-indazole], the IC50 is 0.0158 nM.

Regarding `Fc1ccc(-c2ccc3nc(C(F)(F)F)nn3c2-c2ccc3[nH]ncc3c2)cc1` [Example 56, 6-(4-Fluorophenyl)-5-(1H-indazol-5-yl)-2-(trifluoromethyl)-[1,2,4]triazolo[1,5-a]pyridine], the IC50 is 1.26 nM.

In the case of `Cc1nc2ccc(C(F)(F)F)c(-c3cc(Cl)c4[nH]ncc4c3)n2n1` [Example 21, 5-(7-Chloro-1H-indazol-5-yl)-2-methyl-6-(trifluoromethyl)-[1,2,4]triazolo[1,5-a]pyridine], the IC50 was 0.631 nM.

In the case of `FC(F)c1nc2ccc(C(F)(F)F)c(-c3cc(C(F)(F)F)c4[nH]ncc4c3)n2n1` [Example 11, 2-(Difluoromethyl)-6-(trifluoromethyl)-5-(7-(trifluoromethyl)-1H-indazol-5-yl)-[1,2,4]triazolo[1,5-a]pyridine], the IC50 is 0.158 nM.

Take `Cc1cc(-c2c(C(F)(F)F)cc(C)c3nc(C(F)F)nn23)cc2cn[nH]c12` [Example 86, 2-(Difluoromethyl)-8-methyl-5-(7-methyl-1H-indazol-5-yl)-6-(trifluoromethyl)-[1,2,4]triazolo[1,5-a]pyridine]: the pIC50 is reported as 9.4.

With `CCc1nc2c(CC)cc(C(F)(F)F)c(-c3cc(Cl)c4[nH]ncc4c3)n2n1` [Example 89, 5-(7-Chloro-1H-indazol-5-yl)-2,8-diethyl-6-(trifluoromethyl)-[1,2,4]triazolo[1,5-a]pyridine], the IC50 was 0.794 nM.

For `Cc1cc(-c2c(C(F)F)cc(C)c3nc(C4CC4)nn23)cc2cn[nH]c12` [Example 114, 2-Cyclopropyl-6-(difluoromethyl)-8-methyl-5-(7-methyl-1H-indazol-5-yl)-[1,2,4]triazolo[1,5-a]pyridine], the IC50 is 0.398 nM.

For the compound `CCc1nc2ccc(-c3ccc(F)cc3)c(-c3cc(C)c4[nH]ncc4c3)n2n1` [Example 61, 2-Ethyl-6-(4-fluorophenyl)-5-(7-methyl-1H-indazol-5-yl)-[1,2,4]triazolo[1,5-a]pyridine], the IC50 was 0.2 nM.

As for `CCc1nc2ccc(C(F)(F)F)c(-c3cc(C)c4c(c3)CC(=O)N4)n2n1` [Example 28, 5-(2-Ethyl-6-(trifluoromethyl)-[1,2,4]triazolo[1,5-a]pyridin-5-yl)-7-methylindolin-2-one], the IC50 was 3.98 nM.

`CCc1nc2ccc(C(F)F)c(-c3cc(Cl)c4c(c3)CC(=O)N4)n2n1` [Example 46, 7-Chloro-5-(6-(difluoromethyl)-2-ethyl-[1,2,4]triazolo[1,5-a]pyridin-5-yl)indolin-2-one]: the IC50 was 3.98 nM.

Take `Cc1cc(-c2c(C(F)F)ccc3cc(C(F)(F)F)nn23)cc2c1NC(=O)C2` [Example 119, 5-[6-(Difluoromethyl)-2-(trifluoromethyl)pyrazolo[1,5-a]pyridin-7-yl]-7-methyl-indolin-2-one]: the IC50 is 0.0501 nM.

Regarding `CCc1nc2ccc(C(F)F)c(-c3cc(C)c4[nH]ncc4c3)n2n1` [Example 45, 6-(Difluoromethyl)-2-ethyl-5-(7-methyl-1H-indazol-5-yl)-[1,2,4]triazolo[1,5-a]pyridine], the IC50 is 1.26 nM.

With `FC(F)(F)c1nc2ccc(C(F)(F)F)c(-c3cc(Cl)c4[nH]ncc4c3)n2n1` [Example 1, 5-(7-Chloro-1H-indazol-5-yl)-2,6-bis(trifluoromethyl)-[1,2,4]triazolo[1,5-a]pyridine], the IC50 was 0.0794 nM.

As for `Cc1cc(-c2c(C(F)(F)F)ccc3nc(C(F)(F)F)nn23)cc2c1NC(=O)C2` [Example 4, 5-(2,6-Bis(trifluoromethyl)-[1,2,4]triazolo[1,5-a]pyridin-5-yl)-7-methylindolin-2-one], the IC50 was 0.501 nM.

Turning to `Cc1nc2c(C)cc(C(F)(F)F)c(-c3cc(Cl)c4[nH]ncc4c3)n2n1` [Example 116, 5-(7-Chloro-1H-indazol-5-yl)-2,8-dimethyl-6-(trifluoromethyl)-[1,2,4]triazolo[1,5-a]pyridine], the IC50 was 2.51 nM.

Turning to `COc1ccc2nc(C(F)F)nn2c1-c1cc(Cl)c2[nH]ncc2c1` [Example 13, 5-(7-Chloro-1H-indazol-5-yl)-2-(difluoromethyl)-6-methoxy-[1,2,4]triazolo[1,5-a]pyridine], the IC50 was 5.01 nM.

Take `Cc1cc(-c2c(C(F)F)ccc3nc(C4CC4)nn23)cc2cn[nH]c12` [Example 49, 2-Cyclopropyl-6-(difluoromethyl)-5-(7-methyl-1H-indazol-5-yl)-[1,2,4]triazolo[1,5-a]pyridine]: the IC50 was 0.794 nM.

For the compound `CCc1cc(C(F)(F)F)c(-c2cc(C)c3[nH]ncc3c2)n2nc(C(F)F)nc12` [Example 88, 2-(Difluoromethyl)-8-ethyl-5-(7-methyl-1H-indazol-5-yl)-6-(trifluoromethyl)-[1,2,4]triazolo[1,5-a]pyridine], the IC50 was 1.58 nM.

As for `CC(C)c1nc2c(F)cc(C(F)(F)F)c(-c3cc(Cl)c4[nH]ncc4c3)n2n1` [Example 34, 5-(7-Chloro-1H-indazol-5-yl)-8-fluoro-2-isopropyl-6-(trifluoromethyl)-[1,2,4]triazolo[1,5-a]pyridine], the IC50 is 0.316 nM.

For `Cc1cc(-c2c(C(F)(F)F)cc(C)c3nc(C(F)F)nn23)cc2cn[nH]c12` [Example 79, 2-(Difluoromethyl)-8-methyl-5-(7-methyl-1H-indazol-5-yl)-6-(trifluoromethyl)-[1,2,4]triazolo[1,5-a]pyridine], the IC50 was 0.398 nM.

On to `FC(F)c1ccc2nc(C(F)(F)F)nn2c1-c1cc(Cl)c2[nH]ncc2c1` [Example 16, 5-(7-Chloro-1H-indazol-5-yl)-6-(difluoromethyl)-2-(trifluoromethyl)-[1,2,4]triazolo[1,5-a]pyridine], for which the IC50 was 0.1 nM.
